target: DNA-dependent protein kinase catalytic subunit (Homo sapiens, UniProt P78527); assay: DNA-PK Enzyme Inhibitory Assay
Description: The assays of DNA-PK were performed by Reaction Biology Corporation, One Great Valley Parkway, Suite 2 Malvern, PA 19355 USA. All Compounds were dissolved in DMSO (negative control solvent) and tested for their ability to inhibit human DNA-PK enzyme activity. All synthesized compounds were tested in a 10-dose IC50 profile with 4-fold serial dilutions starting at concentration 100 μM. The control compound, LY294002 was tested in a 10-dose IC50 profile with 3-fold serial dilutions starting at 10 μM concentration. Reactions were carried out using 20 μM peptide substrate [EPPLSQEAFADLWKK], 10 μg/ml DNA and 10 μM ATP using the HTRF assay format.

Chain of DNA-dependent protein kinase catalytic subunit (P78527 whole entry): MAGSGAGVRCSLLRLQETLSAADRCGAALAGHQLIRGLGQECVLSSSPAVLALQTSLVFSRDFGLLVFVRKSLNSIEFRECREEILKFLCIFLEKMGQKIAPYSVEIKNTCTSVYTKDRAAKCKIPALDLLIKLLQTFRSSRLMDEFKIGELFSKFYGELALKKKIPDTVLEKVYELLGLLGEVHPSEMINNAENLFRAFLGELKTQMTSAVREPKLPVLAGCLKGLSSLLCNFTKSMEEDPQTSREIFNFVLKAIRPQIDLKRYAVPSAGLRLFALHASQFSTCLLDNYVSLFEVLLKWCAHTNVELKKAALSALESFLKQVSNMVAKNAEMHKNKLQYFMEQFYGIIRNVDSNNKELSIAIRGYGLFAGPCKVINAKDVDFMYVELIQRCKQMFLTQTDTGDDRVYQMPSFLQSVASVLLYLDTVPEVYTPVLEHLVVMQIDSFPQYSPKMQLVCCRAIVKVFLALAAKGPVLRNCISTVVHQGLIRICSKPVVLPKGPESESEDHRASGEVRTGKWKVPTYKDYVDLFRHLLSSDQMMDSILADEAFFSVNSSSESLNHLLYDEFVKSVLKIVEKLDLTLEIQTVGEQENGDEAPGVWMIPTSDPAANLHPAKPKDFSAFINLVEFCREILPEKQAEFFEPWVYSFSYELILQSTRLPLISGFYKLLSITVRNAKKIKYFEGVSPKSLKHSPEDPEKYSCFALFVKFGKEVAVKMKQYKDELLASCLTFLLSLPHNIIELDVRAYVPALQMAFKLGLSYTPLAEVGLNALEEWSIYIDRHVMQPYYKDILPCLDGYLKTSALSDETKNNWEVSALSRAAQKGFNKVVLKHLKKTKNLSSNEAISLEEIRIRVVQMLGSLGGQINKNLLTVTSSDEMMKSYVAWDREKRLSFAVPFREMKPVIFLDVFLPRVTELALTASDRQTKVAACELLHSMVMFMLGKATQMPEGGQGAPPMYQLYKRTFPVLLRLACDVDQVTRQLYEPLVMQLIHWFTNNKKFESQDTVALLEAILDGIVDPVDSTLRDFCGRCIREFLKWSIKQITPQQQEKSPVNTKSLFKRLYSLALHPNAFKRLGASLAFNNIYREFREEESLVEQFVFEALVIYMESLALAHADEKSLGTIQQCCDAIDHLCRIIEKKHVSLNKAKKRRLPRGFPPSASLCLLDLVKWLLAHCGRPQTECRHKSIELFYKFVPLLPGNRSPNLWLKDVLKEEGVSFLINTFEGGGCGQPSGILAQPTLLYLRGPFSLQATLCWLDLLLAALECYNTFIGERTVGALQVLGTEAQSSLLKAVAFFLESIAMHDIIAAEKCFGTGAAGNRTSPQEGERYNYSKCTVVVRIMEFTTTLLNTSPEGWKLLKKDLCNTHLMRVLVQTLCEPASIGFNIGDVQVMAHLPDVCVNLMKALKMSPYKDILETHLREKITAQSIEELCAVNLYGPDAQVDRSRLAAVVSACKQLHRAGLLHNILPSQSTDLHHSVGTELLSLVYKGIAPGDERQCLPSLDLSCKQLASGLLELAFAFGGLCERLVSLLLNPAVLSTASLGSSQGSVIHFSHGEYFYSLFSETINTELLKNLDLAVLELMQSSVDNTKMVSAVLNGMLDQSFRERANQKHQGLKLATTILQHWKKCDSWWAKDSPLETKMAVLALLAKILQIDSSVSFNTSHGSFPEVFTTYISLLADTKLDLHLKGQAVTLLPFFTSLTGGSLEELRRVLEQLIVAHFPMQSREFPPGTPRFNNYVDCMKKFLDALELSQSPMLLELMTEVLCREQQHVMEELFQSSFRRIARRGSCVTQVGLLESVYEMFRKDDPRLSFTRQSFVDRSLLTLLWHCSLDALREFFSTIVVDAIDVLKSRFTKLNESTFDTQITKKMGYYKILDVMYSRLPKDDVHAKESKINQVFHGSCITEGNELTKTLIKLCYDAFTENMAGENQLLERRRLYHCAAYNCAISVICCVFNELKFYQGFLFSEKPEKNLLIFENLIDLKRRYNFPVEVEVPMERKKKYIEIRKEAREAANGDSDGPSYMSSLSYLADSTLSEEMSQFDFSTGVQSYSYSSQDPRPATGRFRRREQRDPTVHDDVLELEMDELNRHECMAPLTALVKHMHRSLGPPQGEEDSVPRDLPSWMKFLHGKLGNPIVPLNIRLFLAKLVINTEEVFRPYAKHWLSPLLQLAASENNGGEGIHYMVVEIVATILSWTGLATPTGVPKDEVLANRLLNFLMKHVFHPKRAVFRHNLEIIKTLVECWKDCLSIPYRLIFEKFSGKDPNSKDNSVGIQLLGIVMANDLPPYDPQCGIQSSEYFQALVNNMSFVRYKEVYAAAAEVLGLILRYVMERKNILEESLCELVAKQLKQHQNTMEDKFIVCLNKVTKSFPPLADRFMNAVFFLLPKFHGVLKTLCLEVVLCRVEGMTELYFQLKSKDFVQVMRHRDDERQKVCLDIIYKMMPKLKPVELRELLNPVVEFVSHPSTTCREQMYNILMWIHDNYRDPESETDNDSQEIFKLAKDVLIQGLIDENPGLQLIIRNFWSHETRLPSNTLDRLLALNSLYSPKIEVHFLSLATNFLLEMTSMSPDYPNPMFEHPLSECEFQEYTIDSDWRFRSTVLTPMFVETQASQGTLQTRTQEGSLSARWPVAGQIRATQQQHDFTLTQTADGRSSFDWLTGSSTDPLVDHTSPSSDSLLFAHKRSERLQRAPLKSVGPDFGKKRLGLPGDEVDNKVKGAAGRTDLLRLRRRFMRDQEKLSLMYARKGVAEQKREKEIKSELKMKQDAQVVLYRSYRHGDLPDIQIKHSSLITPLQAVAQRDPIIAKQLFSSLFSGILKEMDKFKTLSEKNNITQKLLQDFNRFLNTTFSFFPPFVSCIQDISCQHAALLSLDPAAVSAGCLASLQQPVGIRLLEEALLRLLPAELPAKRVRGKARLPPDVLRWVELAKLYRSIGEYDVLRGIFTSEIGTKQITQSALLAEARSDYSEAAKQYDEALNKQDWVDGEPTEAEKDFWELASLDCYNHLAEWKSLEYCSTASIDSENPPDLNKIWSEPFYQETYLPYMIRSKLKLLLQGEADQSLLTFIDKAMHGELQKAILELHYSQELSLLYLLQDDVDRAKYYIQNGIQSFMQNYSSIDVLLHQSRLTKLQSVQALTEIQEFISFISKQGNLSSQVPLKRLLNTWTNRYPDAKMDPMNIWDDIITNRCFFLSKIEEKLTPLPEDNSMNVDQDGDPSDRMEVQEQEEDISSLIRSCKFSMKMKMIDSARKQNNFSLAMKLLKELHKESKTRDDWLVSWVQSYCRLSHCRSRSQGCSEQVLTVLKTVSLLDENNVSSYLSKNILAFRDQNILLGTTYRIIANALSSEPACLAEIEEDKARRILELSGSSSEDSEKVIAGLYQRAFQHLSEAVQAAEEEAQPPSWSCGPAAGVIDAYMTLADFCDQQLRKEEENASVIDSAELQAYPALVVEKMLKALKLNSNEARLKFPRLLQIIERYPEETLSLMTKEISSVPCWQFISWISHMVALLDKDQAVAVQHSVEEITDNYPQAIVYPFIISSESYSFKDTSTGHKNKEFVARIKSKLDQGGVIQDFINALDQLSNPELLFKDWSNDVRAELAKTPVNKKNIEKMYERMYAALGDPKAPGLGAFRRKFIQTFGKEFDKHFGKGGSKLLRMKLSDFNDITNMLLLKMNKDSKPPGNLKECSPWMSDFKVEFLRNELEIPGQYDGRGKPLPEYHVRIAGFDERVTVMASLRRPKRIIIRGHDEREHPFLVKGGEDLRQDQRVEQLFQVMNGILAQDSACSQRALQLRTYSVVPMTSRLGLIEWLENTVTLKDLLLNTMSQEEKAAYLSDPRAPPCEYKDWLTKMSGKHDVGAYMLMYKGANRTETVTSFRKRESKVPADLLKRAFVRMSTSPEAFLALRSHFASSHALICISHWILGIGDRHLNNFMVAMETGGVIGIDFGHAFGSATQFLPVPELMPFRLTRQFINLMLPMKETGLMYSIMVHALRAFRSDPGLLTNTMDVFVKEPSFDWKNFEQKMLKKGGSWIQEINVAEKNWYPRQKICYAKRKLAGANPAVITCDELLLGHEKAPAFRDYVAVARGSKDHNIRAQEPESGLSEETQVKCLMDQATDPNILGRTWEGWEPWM

Compound | IC50 [µM]
Cc1c(OCC(=O)Nc2ccc(S(=O)(=O)NC(=N)N)cc2)ccc2c(=O)nc(N3CCOCC3)oc12 [N-(4-(N-carbamimidoylsulfamoyl)phenyl)-2-((8-methyl-2-morpholino-4-oxo-4H-benzo[e][1,3]oxazin-7-yl)oxy)acetamide (7e)] | 25
Cc1c(OCC(=O)Nc2ccc(S(=O)(=O)Nc3nccs3)cc2)ccc2c(=O)nc(N3CCOCC3)oc12 [2-((8-Methyl-2-morpholino-4-oxo-4H-benzo[e][1,3]oxazin-7-yl)oxy)-N-(4-(N-(thiazol-2-yl)sulfamoyl)phenyl)acetamide (7d)] | 3.5
Cc1c(OCC(=O)Nc2ccc(S(=O)(=O)Nc3ccccn3)cc2)ccc2c(=O)nc(N3CCOCC3)oc12 [2-((8-Methyl-2-morpholino-4-oxo-4H-benzo[e][1,3]oxazin-7-yl)oxy)-N-(4-(N-(pyridin-2-yl)sulfamoyl)phenyl)acetamide (7c)] | 0.25
CC(=O)NS(=O)(=O)c1ccc(NC(=O)COc2ccc3c(=O)nc(N4CCOCC4)oc3c2C)cc1 [N-(4-(N-acetylsulfamoyl)phenyl)-2-((8-methyl-2-morpholino-4-oxo-4H-benzo[e][1,3]oxazin-7-yl)oxy)acetamide (7b)] | 35
Cc1noc(NS(=O)(=O)c2ccc(NC(=O)COc3ccc4c(=O)nc(N5CCOCC5)oc4c3C)cc2)c1C [N-(4-(N-(3,4-dimethylisoxazol-5-yl)sulfamoyl)phenyl)-2-((8-methyl-2-morpholino-4-oxo-4H-benzo[e][1,3]oxazin-7-yl)oxy)acetamide (7f)] | 5
CCC(C)C(NC(=O)COc1ccc2c(=O)nc(N3CCOCC3)oc2c1C)C(=O)O (stereo not given) [3-Methyl-2-(2-((8-methyl-2-morpholino-4-oxo-4H-benzo[e][1,3]oxazin-7-yl)oxy)acetamido)pentanoic acid (11b)] | 80

The remaining lines, values ahead:

IC50 [µM] | Compound
4 | Cc1c(OCC(=O)NCc2ccc(F)cc2)ccc2c(=O)nc(N3CCOCC3)oc12 [N-(4-fluorobenzyl)-2-((8-methyl-2-morpholino-4-oxo-4Hbenzo[e][1,3]oxazin-7-yl)oxy)acetamide (9e)]
35 | Cc1c(OCC(=O)N[C@@H](Cc2ccccc2)C(=O)O)ccc2c(=O)nc(N3CCOCC3)oc12 [(2-((8-Methyl-2-morpholino-4-oxo-4H-benzo[e][1,3]oxazin-7yl)oxy)acetyl)phenylalanine (11c)]
100 | Cc1c(OCC(=O)N[C@@H](C)C(=O)O)ccc2c(=O)nc(N3CCOCC3)oc12 [(2-((8-Methyl-2-morpholino-4-oxo-4H-benzo[e][1,3]oxazin-7-yl)oxy)acetyl)alanine (11a)]
10 | Cc1c(OCC(=O)NCc2ccc(Cl)cc2)ccc2c(=O)nc(N3CCOCC3)oc12 [N-(4-chlorobenzyl)-2-((8-methyl-2-morpholino-4-oxo-4Hbenzo[e][1,3]oxazin-7-yl)oxy)acetamide (9d)]
15 | COc1ccc(CNC(=O)COc2ccc3c(=O)nc(N4CCOCC4)oc3c2C)cc1 [N-(4-methoxybenzyl)-2-((8-methyl-2-morpholino-4-oxo-4Hbenzo[e][1,3]oxazin-7-yl)oxy)acetamide (9b)]
40 | Cc1c(OCC(=O)Nc2ccc(S(N)(=O)=O)cc2)ccc2c(=O)nc(N3CCOCC3)oc12 [2-((8-Methyl-2-morpholino-4-oxo-4H-benzo[e][1,3]oxazin-7-yl)oxy)-N-(4-sulfamoylphenyl)acetamide (7a)]
> 100 | Cc1c(OCC(=O)NCc2ccccc2)ccc2c(=O)nc(N3CCOCC3)oc12 [N-benzyl-2-((8-methyl-2-morpholino-4-oxo-4H-benzo[e][1,3]oxazin-7-yl)oxy)acetamide (9a)]
2.5 | Cc1c(OCC(=O)NCc2ccc(O)cc2)ccc2c(=O)nc(N3CCOCC3)oc12 [N-(4-hydroxybenzyl)-2-((8-methyl-2-morpholino-4-oxo-4Hbenzo[e][1,3]oxazin-7-yl)oxy)acetamide (9f)]
20 | Cc1ccc(CNC(=O)COc2ccc3c(=O)nc(N4CCOCC4)oc3c2C)cc1 [2-((8-Methyl-2-morpholino-4-oxo-4H-benzo[e][1,3]oxazin-7-yl)oxy)-N-(4-methylbenzyl)acetamide (9c)]
